Values of other authors in patent publication US20230372421A1, “IMMATURE POMEGRANATE EXTRACT FORMULATIONS” (CONSIGLIO NAZIONALE DELLE RICERCHE, priority 2020, published 2023).

System: cells of neuronal origin
Settings: Jin, Yu, Wang & Xu, 2016

Compound: O=C1O[C@H]2[C@H](OC(=O)c3cc(O)c(O)c(O)c3)O[C@@H]3COC(=O)c4cc(O)c(O)c(O)c4-c4c(cc(O)c(O)c4O)C(=O)O[C@H]2[C@@H]3OC(=O)c2cc(O)c(O)c3c2C2C1=CC(=O)C(O)(O)C2(O)O3 (stereo partly shown) [granatin B]
- anticancer properties: important anticancer properties
